Assay results as given in PubChem BioAssay AID1918942 (Molecular Pharmacology Branch, DTP, NCI, 2023).
Where “and” joins values, the source holds several entries; their conditions need not be identical. Identical values can stand only once. One block for each compound: values may come before it.

System: 743489-274-T-PDC complex spheroid viability
Assay: Anticancer human tumor 743489-274-T-PDC patient-derived renal cell carcinoma cell line growth inhibition
Conditions: for viability, T/C: stronger effect = lower value
Source text: Multicellular complex tumor spheroid response to LSD1 Inhibitor Iadademstat in combination with a variety of drugs and investigational agents in selected tumor cell lines
The current study was undertaken to assess response to LSD1 inhibitors in combination with standard-of-care drugs and investigational agents in solid tumor complex spheroid models as well as in the K-562 leukemia. Complex spheroids include a stromal component modeled by human endothelial cells (HUVEC) and fibroblasts modeled by human mesenchymal stem cells (MSCs). The concentration ranges selected for each drug and investigational agent were based upon clinically achievable concentrations if the clinical Cmax of the agent was known.
Compounds. The drugs and investigational agents used in this study are listed on Table 1. All of the agents used, including staurosporine (NSC755774) and gemcitabine (NSC613327), were obtained from the Developmental Therapeutics Program, NCI. FDA-approved anticancer drugs are available from the NCI at http://dtp.nci.nih.gov/branches/dscb/oncology_drugset_explanation.html. Drugs and investigational agents were >95% pure by proton nuclear magnetic resonance (NMR) and liquid chromatography/mass spectrometry (LC/MS). Stock solutions were prepared at 400x in DMSO, stored at -70 degrees C, and diluted in fresh medium prior to their use. The final concentration of DMSO in cell culture wells never exceeded 0.25% (v/v). The FDA-approved anticancer drug set is available from the Developmental Therapeutics Program at https://dtp.cancer.gov/organization/dscb/obtaining/available_plates.htm. All drugs and investigational agents were tested over a range starting from a high concentration at or near the clinical Cmax and decreasing in half-log increments. If the clinical Cmax for an agent had not been determined, the highest concentration tested was 10 microM.
Cell Lines. The patient-derived cancer cell (PDC) lines: 292921-168-R-J2-PDC, K24384-001-R-PDC, and 521955-158-R2-J5-PDC pancreatic carcinomas, 556581-035-R-J1 ovarian carcinoma, 324938-238-R-J1-PDC, 855422-203-R-J1-PDC and 883617-216-R-J1-PDC urothelial bladder carcinomas, 743489-274-T-PDC renal cell carcinoma, 138582-R-J1 Merkel cell tumor, K60290-347-R-J1 and K57222-313-R-J1-PDC glioblastomas, 653999-131-R-J2-PDC, LG0703-F948-PDC, and 349418-098-R-PDC non-small cell lung carcinomas, 885512-296-R-J2-PDC, 171881-019-R-J1-PDC breast carcinomas and 186277-243-T-J2-PDC and 233499-124-R-J2-PDC colon carcinomas were obtained from the NCI Patient-Derived Models Repository (PDMR, https://pdmr.cancer.gov). The established cell lines NCI/ADR-RES (RRID:CVCL_14520 and OVCAR-5 (RRID:CVCL_1628) ovarian carcinomas, 786-O (RRID:CVCL_1051) and A498 (RRID:CVCL_A498) renal cell carcinoma, NCI-H211 (ATCC, cat. CRL-5824; RRID:CVCL_1529), NCI-H196 (ATCC, cat. CRL-5823, RRID:CVCL_1509), SW 1271 (ATCC, cat. CRL-2177, RRID:CVCL_1716) and NCI-H1876 (ATCC, cat. CRL-5902, RRID:CVCL_1503) small cell lung carcinomas, MDA-MB-231 (RRID:CVCL_0062) and MDA-MB-468 (RRID:CVCL_0419)breast carcinomas (10-12). Pooled donor human umbilical vein endothelial cells (HUVEC, Lonza, cat. CC-2519) and human mesenchymal stem cells (hMSC, Lonza, cat. PT-2501) were purchased from Lonza (Walkersville, MD).
Cell Culture. All cells were maintained in an incubator at 37 degrees C and 5% CO2 with 95% humidity. The PDC lines were cultured according to standard operating procedures established by the NCI PDMR (https://pdmr.cancer.gov). Briefly all PDCs were thawed and cultured in Matrigel-coated flasks prepared with a working solution of 1X Ham's F-12 nutrient mix, without supplementation (Invitrogen, Waltham, MA, cat. 11765054), 100 U/mL penicillin-streptomycin (Invitrogen, cat. 15140122), and 2.5% Matrigel (Corning Inc., Corning, NY, cat. 354248) for the first three passages. […]
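Note: spheroids exposed to compounds for 7 days before readout.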
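Throughout, for viability, T/C: 100% = DMSO vehicle control wells.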

IC50 (curve of compound): > 3 µM
Compound: NS(=O)(=O)OCC1CC(n2ccc3c(NC4CCc5ccccc54)ncnc32)CC1O (configuration not stated)
viability, T/C (compound 0.00949 µM): 90.9% and 95.7%
viability, T/C (compound 0.03 µM): 95.9% and 111%
viability, T/C (compound 0.0949 µM): 111% and 103%
viability, T/C (compound 0.3 µM): 118% and 135%
viability, T/C (compound 0.949 µM): 116% and 125%
viability, T/C (compound 3 µM): 121% and 101%

Compound: CC1COCCN1c1cc(C2(S(C)(=N)=O)CC2)nc(-c2ccnc3[nH]ccc23)n1 (configuration not stated) + NC1CC1c1ccc(-c2cccc(O)c2)cc1
IC50 (curve of first compound, second compound 0.1 µM): > 10 µM
IC50 (curve of first compound, second compound 0.316 µM): > 10 µM
IC50 (curve of first compound, second compound 1 µM): > 10 µM
IC50 (curve of first compound, second compound 3.16 µM): > 10 µM
IC50 (curve of first compound, second compound 10 µM): > 10 µM
viability, T/C (second compound 0.1 µM, first compound 0.0316 µM): 94.6%
viability, T/C (second compound 0.1 µM, first compound 0.1 µM): 103%
viability, T/C (second compound 0.1 µM, first compound 0.316 µM): 92.3%
viability, T/C (second compound 0.1 µM, first compound 1 µM): 94.6%
viability, T/C (second compound 0.1 µM, first compound 3.16 µM): 74.4%
viability, T/C (second compound 0.1 µM, first compound 10 µM): 68.3%
viability, T/C (second compound 0.316 µM, first compound 0.0316 µM): 99.5%
viability, T/C (second compound 0.316 µM, first compound 0.1 µM): 96.6%
viability, T/C (second compound 0.316 µM, first compound 0.316 µM): 99.6%
viability, T/C (second compound 0.316 µM, first compound 1 µM): 101%
viability, T/C (second compound 0.316 µM, first compound 3.16 µM): 90.1%
viability, T/C (second compound 0.316 µM, first compound 10 µM): 73.3%
viability, T/C (second compound 1 µM, first compound 0.0316 µM): 89.6%
viability, T/C (second compound 1 µM, first compound 0.1 µM): 101%
viability, T/C (second compound 1 µM, first compound 0.316 µM): 104%
viability, T/C (second compound 1 µM, first compound 1 µM): 95.1%
viability, T/C (second compound 1 µM, first compound 3.16 µM): 76.4%
viability, T/C (second compound 1 µM, first compound 10 µM): 70.8%
viability, T/C (second compound 3.16 µM, first compound 0.0316 µM): 107%
viability, T/C (second compound 3.16 µM, first compound 0.1 µM): 114%
viability, T/C (second compound 3.16 µM, first compound 0.316 µM): 97.4%
viability, T/C (second compound 3.16 µM, first compound 1 µM): 102%
viability, T/C (second compound 3.16 µM, first compound 3.16 µM): 75.3%
viability, T/C (second compound 3.16 µM, first compound 10 µM): 66.6%
viability, T/C (second compound 10 µM, first compound 0.0316 µM): 114%
viability, T/C (second compound 10 µM, first compound 0.1 µM): 102%
viability, T/C (second compound 10 µM, first compound 0.316 µM): 104%
viability, T/C (second compound 10 µM, first compound 1 µM): 110%
viability, T/C (second compound 10 µM, first compound 3.16 µM): 74.7%
viability, T/C (second compound 10 µM, first compound 10 µM): 70.8%
